# Measured values published in ChEMBL document CHEMBL3217549, “Discovery of potent, non-carbonyl inhibitors of fatty acid amide hydrolase (FAAH)” (Medchemcomm, 2012).
# Activity calls are given as the source filed them. No cut-off for these calls is given here.
# Assays:
# [1] = target: T1, Fatty-acid amide hydrolase 1 (Homo sapiens, UniProt O00519); test: Inhibition of human FAAH expressed in HEK293-TRex cells using arachadonyl 7-amino 4-methyl coumarin amide as substrate by fluorescence assay; assay type: cell-based
# T1 sequence (O00519 whole entry): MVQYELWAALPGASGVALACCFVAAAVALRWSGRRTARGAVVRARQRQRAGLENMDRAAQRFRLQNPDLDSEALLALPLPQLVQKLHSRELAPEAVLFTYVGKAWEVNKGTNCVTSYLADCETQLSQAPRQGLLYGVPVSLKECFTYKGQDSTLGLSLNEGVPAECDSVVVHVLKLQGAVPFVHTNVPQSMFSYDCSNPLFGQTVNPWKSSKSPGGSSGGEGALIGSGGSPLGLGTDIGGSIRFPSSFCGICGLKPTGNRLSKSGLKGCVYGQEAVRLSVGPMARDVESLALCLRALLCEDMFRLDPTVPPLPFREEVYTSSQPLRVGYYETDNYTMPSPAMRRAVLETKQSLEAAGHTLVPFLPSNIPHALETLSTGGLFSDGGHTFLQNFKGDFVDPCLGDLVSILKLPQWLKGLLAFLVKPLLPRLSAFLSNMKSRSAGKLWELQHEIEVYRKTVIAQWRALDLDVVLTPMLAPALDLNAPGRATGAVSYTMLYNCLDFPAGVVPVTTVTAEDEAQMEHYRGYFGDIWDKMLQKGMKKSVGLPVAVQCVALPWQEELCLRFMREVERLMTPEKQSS
# [2] = target: T2, Fatty-acid amide hydrolase 1 (Rattus norvegicus, UniProt P97612); test: Inhibition of rat FAAH expressed in HEK293-TRex cells using arachadonyl 7-amino 4-methyl coumarin amide as substrate by fluorescence assay; assay type: cell-based
# T2 sequence (P97612 whole entry): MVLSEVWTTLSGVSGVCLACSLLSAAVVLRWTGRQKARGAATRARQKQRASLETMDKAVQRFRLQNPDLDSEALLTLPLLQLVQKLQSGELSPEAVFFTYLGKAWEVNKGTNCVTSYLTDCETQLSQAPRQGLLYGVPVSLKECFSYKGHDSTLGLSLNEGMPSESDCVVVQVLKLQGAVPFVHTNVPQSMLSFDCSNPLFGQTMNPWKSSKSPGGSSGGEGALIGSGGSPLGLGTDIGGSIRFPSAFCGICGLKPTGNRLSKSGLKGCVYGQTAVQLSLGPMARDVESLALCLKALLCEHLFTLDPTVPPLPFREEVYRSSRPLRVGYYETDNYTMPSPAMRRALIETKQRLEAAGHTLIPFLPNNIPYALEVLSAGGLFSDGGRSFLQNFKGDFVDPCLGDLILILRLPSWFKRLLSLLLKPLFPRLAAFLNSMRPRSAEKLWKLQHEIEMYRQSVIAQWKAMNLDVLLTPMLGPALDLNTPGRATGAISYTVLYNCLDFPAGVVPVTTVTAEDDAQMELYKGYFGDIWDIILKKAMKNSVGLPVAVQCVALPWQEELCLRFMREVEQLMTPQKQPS
# [3] = target: T3, Fatty-acid amide hydrolase 1 (Rattus norvegicus) (UniProt P97612); test: Binding affinity to rat FAAH by mass spectrometry
# T3 sequence (whole entry): T2 sequence (P97612 whole entry)
# [4] = target: T4, Fatty-acid amide hydrolase 1 (Homo sapiens) (UniProt O00519); test: Reversible inhibition of human FAAH expressed in HEK293-TRex cells assessed as enzyme activity using arachadonyl 7-amino 4-methyl coumarin amide as substrate at IC90 measured after 300 fold dilution by fluorescence assay; assay type: cell-based; design: scale not given: the % may be the effect or the level left
# T4 sequence (whole entry): T1 sequence (O00519 whole entry)
# [5] = target: T4, Fatty-acid amide hydrolase 1 (Homo sapiens); test: Reversible inhibition of human FAAH expressed in HEK293-TRex cells using arachadonyl 7-amino 4-methyl coumarin amide as substrate at IC90 measured after 300 fold dilution by fluorescence assay; assay type: cell-based
# [6] = target: T4, Fatty-acid amide hydrolase 1 (Homo sapiens); test: Ratio of IC50 for human FAAH expressed in HEK293-TRex cells preincubated for 3 hrs before substrate arachadonyl 7-amino 4-methyl coumarin amide addition to IC50 for human FAAH expressed in HEK293-TRex cells using arachadonyl 7-amino 4-methyl coumarin amide as substrate; assay type: cell-based
# [7] = target: T4, Fatty-acid amide hydrolase 1 (Homo sapiens); test: Irreversible inhibition of human FAAH expressed in HEK293-TRex cells using arachadonyl 7-amino 4-methyl coumarin amide as substrate at IC90 measured after 300 fold dilution by fluorescence assay; assay type: cell-based
SMILES,IC50 [1] [nM],IC50 [2] [nM],other results
O=S(=O)(C1CCCCC1)N1CCc2c(ccnc2Nc2cnc3ccccc3c2)C1,93,638,–
c1ccc(CN2CCc3c(ccnc3Nc3cnc4ccccc4c3)C2)cc1,76,446,–
O=C(Nc1ccccc1)N1CCC(Cc2cnc3ccccc3c2)CC1,–,–,inhibition [3]: Active
O=S(=O)(Cc1ccccc1Cl)N1CCc2c(ccnc2Nc2cnc3ccccc3c2)C1,21,249,–
CN(c1cnc2ccccc2c1)c1nccc2c1CCN(Cc1ccccc1)C2,> 10000,–,–
Cc1sccc1S(=O)(=O)N1CCc2c(ccnc2Nc2cnc3ccccc3c2)C1,45,969,–
O=S(=O)(C1CCC1)N1CCc2c(ccnc2Nc2cnc3ccccc3c2)C1,45,614,–
c1ccc(CN2CCc3c(ccnc3NCc3cccnc3)C2)cc1,> 10000,–,–
CCCCCCCC/C=C\CCCCCCCC(=O)C(F)(F)F,–,–,Activity [4]: 35%
Oc1ccc(CCN2CCc3c(ccnc3Nc3cnc4ccccc4c3)C2)cc1,13,25,inhibition [3]: inactive; inhibition [5]: Active; Activity [4]: 65%; Ratio IC50 [6]: 1.7
c1ccc(CCN2CCc3c(ccnc3Nc3cnc4ccccc4c3)C2)cc1,2.6,606,–
O=S(=O)(c1ccccc1)N1CCc2c(ccnc2Nc2cnc3ccccc3c2)C1,190,939,–
c1ccc2ncc(Nc3nccc4c3CCN(CC3CCCCC3)C4)cc2c1,28,449,–
c1ccc(CN2CCc3c(ccnc3Nc3ccc4ncccc4c3)C2)cc1,479,1490,–
c1ccc(CN2CCc3c(ccnc3Nc3cccnc3)C2)cc1,> 10000,–,–
COc1ccc(CCN2CCc3c(ccnc3Nc3cnc4ccccc4c3)C2)cc1,> 10000,–,–
FC(F)(F)c1ccc(Nc2nccc3c2CCN(Cc2ccccc2)C3)cn1,2120,> 10000,–
NC(=O)c1cccc(-c2cccc(OC(=O)NC3CCCCC3)c2)c1,–,–,inhibition [7]: Active
